From the supplement of paper PMC11061612

Key:
Experiment in all cases: combination Emax (second highest fraction inhibited in the dose matrix, 72 h); higher = more inhibition; extreme values may be limits of the assay
[1] = system: LCLC-97TM1 (Non-Small Cell Lung Carcinoma)
Method in brief: (§1)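 Bliss excess equals the observed combination effect minus the expected value EA + EB − EA·EB, where EA and EB are the effects of each agent alone. Combination Emax is the second-highest inhibition within the matrix. Inhibition was scaled from CellTiter-Glo 2.0 luminescence, with 0 set by vehicle wells and 1 by blank wells, after 72 hours of two-drug dosing of cells plated in 1536-well plates.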

[2] = system: L-428 (Hodgkin's Lymphoma)
Method in brief: as §1

[3] = system: YAPC (Pancreatic Carcinoma)
Method in brief: as §1

[4] = system: HH (T-Cell Non-Hodgkin's Lymphoma)
Method in brief: as §1

CAL-72 (Osteosarcoma) = system: CAL-72 (Osteosarcoma)
Method in brief: as §1

[5] = system: SW1573 (Lung Adenocarcinoma)
Method in brief: as §1

[6] = system: WSU-NHL (B-Cell Non-Hodgkin's Lymphoma)
Method in brief: as §1

[7] = system: NCI-H209 (Small Cell Lung Carcinoma)
Method in brief: as §1

[8] = system: HuH-7 (Hepatocellular Carcinoma)
Method in brief: as §1

[9] = system: KMRC-20 (Kidney Carcinoma)
Method in brief: as §1

[10] = system: LNZTA3WT4 (Low Grade Glioma)
Method in brief: as §1

[11] = system: CAL-33 (Oral Cavity Carcinoma)
Method in brief: as §1

[12] = system: SW1710 (Bladder Carcinoma)
Method in brief: as §1

BE2-M17 (Neuroblastoma) = system: BE2-M17 (Neuroblastoma)
Method in brief: as §1

[13] = system: Hs-746T (Gastric Carcinoma)
Method in brief: as §1

[14] = system: ESS-1 (Other Solid Carcinomas)
Method in brief: as §1

[15] = system: SAS (Oral Cavity Carcinoma)
Method in brief: as §1

[16] = system: TGBC1TKB (Biliary Tract Carcinoma)
Method in brief: as §1

BPH-1 (Non-Cancerous) = system: BPH-1 (Non-Cancerous)
Method in brief: as §1

MPP-89 (Mesothelioma) = system: MPP-89 (Mesothelioma)
Method in brief: as §1

SMILES	combination Emax [1]	combination Emax [2]	combination Emax [3]	combination Emax [4]	combination Emax (CAL-72 (Osteosarcoma))	combination Emax [5]	combination Emax [6]	combination Emax [7]	combination Emax [8]	combination Emax [9]	combination Emax [10]	combination Emax [11]	combination Emax [12]	combination Emax (BE2-M17 (Neuroblastoma))	combination Emax [13]	combination Emax [14]	combination Emax [15]	combination Emax [16]	combination Emax (BPH-1 (Non-Cancerous))	combination Emax (MPP-89 (Mesothelioma))
CC(=O)Nc1cccc(-n2c(=O)n(C3CC3)c(=O)c3c(Nc4ccc(I)cc4F)n(C)c(=O)c(C)c32)c1 [Trametinib] + Cc1nc(-c2cn3c(n2)-c2ccc(-c4cnn(C(C)(C)C(N)=O)c4)cc2OCC3)n(C(C)C)n1 [Taselisib] (first compound max 1 µM, 7x7, partner max 10 µM)	1	0.204	0.733	0.524	0.85	0.407	0.76	0.218	0.977	0.593	0.671	0.989	0.532	0.994	0.606	0.88	0.882	0.933	0.94	0.796
CC1(C)CCC(CN2CCN(c3ccc(C(=O)NS(=O)(=O)c4ccc(NCC5CCOCC5)c([N+](=O)[O-])c4)c(Oc4cnc5[nH]ccc5c4)c3)CC2)=C(c2ccc(Cl)cc2)C1 [Venetoclax] + CCN(CCO)CCCOc1ccc2c(Nc3cc(CC(=O)Nc4cccc(F)c4)[nH]n3)ncnc2c1 [AZD2811] (first compound max 1 µM, 7x7, partner max 1 µM)	0.289	0.296	0.157	0.18	0.673	0.286	0.782	0.974	0.194	0.2	0.487	0.594	0.248	0.515	0.161	0.977	0.204	0.208	0.416	0.284
CC1(C)CCC(CN2CCN(c3ccc(C(=O)NS(=O)(=O)c4ccc(NCC5CCOCC5)c([N+](=O)[O-])c4)c(Oc4cnc5[nH]ccc5c4)c3)CC2)=C(c2ccc(Cl)cc2)C1 [Venetoclax] + C1CN(CCC1(C(=O)N[C@@H](CCO)C2=CC=C(C=C2)Cl)N)C3=NC=NC4=C3C=CN4 [Capivasertib] (first compound max 1 µM, 7x7, partner max 3 µM)	0.298	0.0426	0.124	0.44	0.554	0.257	0.977	0.456	0.17	0.294	0.508	0.276	0.23	0.254	0.275	0.891	0.286	0.309	0.382	0.375
C=CCn1c(=O)c2cnc(Nc3ccc(N4CCN(C)CC4)cc3)nc2n1-c1cccc(C(C)(C)O)n1 [AZD1775] + C[C@@H]1COCCN1C2=NC(=NC(=C2)C3(CC3)[S@](=N)(=O)C)C4=C5C=CNC5=NC=C4 [AZD6738] (first compound max 1 µM, partner max 10 µM)	0.891	0.891	0.492	0.583	0.93	0.476	1	0.944	0.487	0.763	0.9	0.935	0.713	0.957	0.691	1	0.908	0.502	0.588	0.737
Cc1c2c(nn1C)CSCc1cc(n(C)n1)CSc1cc(c3ccccc3c1)OCCCc1c(C(=O)O)n(C)c3c-2c(Cl)ccc13 [AZD5991] + CN(C)CCCOc1ccc(-c2ccc3ncc4c(c3c2)n(C2CCOCC2)c(=O)n4C)cn1 [AZD0156] (first compound max 1 µM, 7x7, partner max 1 µM)	0.286	0.23	0.169	0.756	0.328	0.214	0.92	0.544	0.252	0.218	0.227	0.185	0.219	0.875	0.358	0.36	0.268	0.219	0.733	0.182
NC1(C(=O)N[C@@H](CCO)c2ccc(Cl)cc2)CCN(c2ncnc3[nH]ccc23)CC1 [Capivasertib] + CCN(CCO)CCCOc1ccc2c(Nc3cc(CC(=O)Nc4cccc(F)c4)[nH]n3)ncnc2c1 [AZD2811] (first compound max 10 µM, 7x7, partner max 1 µM)	0.686	0.302	0.233	0.281	0.321	0.374	0.966	0.428	0.225	0.398	0.475	0.897	0.36	0.493	0.403	0.812	0.299	0.298	0.587	0.435
CC1(C)CCC(CN2CCN(c3ccc(C(=O)NS(=O)(=O)c4ccc(NCC5CCOCC5)c([N+](=O)[O-])c4)c(Oc4cnc5[nH]ccc5c4)c3)CC2)=C(c2ccc(Cl)cc2)C1 [Venetoclax] + COc1cc(Nc2ncc3c(n2)-c2ccc(Cl)cc2C(c2c(F)cccc2OC)=NC3)ccc1C(=O)O [Alisertib] (first compound max 1 µM, 7x7, partner max 10 µM)	0.497	0.363	0.142	0.222	0.591	0.168	0.985	0.891	0.791	0.654	0.472	0.714	0.306	0.901	0.65	0.957	0.39	0.403	0.745	0.566
CC(=O)c1c(C)c2cnc(Nc3ccc(N4CCNCC4)cn3)nc2n(C2CCCC2)c1=O [Palbociclib] + CC1(C)CCC(CN2CCN(c3ccc(C(=O)NS(=O)(=O)c4ccc(NCC5CCOCC5)c([N+](=O)[O-])c4)c(Oc4cnc5[nH]ccc5c4)c3)CC2)=C(c2ccc(Cl)cc2)C1 [Venetoclax] (first compound max 10 µM, 7x7, partner max 1 µM)	0.176	0.467	0.165	0.343	0.345	0.204	0.92	0.921	0.0832	0.214	0.307	0.113	0.246	0.386	0.24	0.294	0.47	0.033	0.153	0.0837
COc1cccc(OCCCN)c1-c1cc(Nc2cnc(C#N)cn2)n[nH]1 [Prexasertib] + O=C(c1cc(Cc2n[nH]c(=O)c3ccccc23)ccc1F)N1CCN(C(=O)C2CC2)CC1 [Olaparib] (first compound max 1 µM, 7x7, partner max 10 µM)	0.936	0.953	0.597	0.542	0.81	0.241	1	0.965	0.3	0.893	0.885	0.833	0.761	0.958	0.806	1	0.93	0.446	0.497	0.714
CC1(C)CCC(CN2CCN(c3ccc(C(=O)NS(=O)(=O)c4ccc(NCC5CCOCC5)c([N+](=O)[O-])c4)c(Oc4cnc5[nH]ccc5c4)c3)CC2)=C(c2ccc(Cl)cc2)C1 [Venetoclax] + C=CCn1c(=O)c2cnc(Nc3ccc(N4CCN(C)CC4)cc3)nc2n1-c1cccc(C(C)(C)O)n1 [AZD1775] (first compound max 1 µM, partner max 1 µM)	0.891	0.851	0.307	0.766	0.924	0.407	0.985	0.978	0.386	0.627	0.917	0.761	0.315	0.825	0.481	1	0.761	0.35	0.377	0.841
COc1cccc(OCCCN)c1-c1cc(Nc2cnc(C#N)cn2)n[nH]1 [Prexasertib] + CCc1c2c(nc3ccc(O)cc13)-c1cc3c(c(=O)n1C2)COC(=O)[C@]3(O)CC [SN-38] (first compound max 1 µM, 7x7, partner max 0.3 µM)	1	0.979	0.653	0.829	0.949	0.925	1	1	0.861	0.982	0.949	0.957	0.86	0.999	0.813	1	0.999	0.632	0.972	0.897
CN(C)CCCOc1ccc(-c2ccc3ncc4c(c3c2)n(C2CCOCC2)c(=O)n4C)cn1 [AZD0156] + O=C(c1cc(Cc2n[nH]c(=O)c3ccccc23)ccc1F)N1CCN(C(=O)C2CC2)CC1 [Olaparib] (first compound max 3 µM, partner max 3 µM)	0.109	0.228	0.283	0.038	0.416	0.162	0.879	0.792	0.16	0.189	0.206	0.352	0.0777	0.331	0.378	0.489	0.212	0.157	0.512	0.235
